Assay results published in patent publication US9890133B2 (priority 2011, dated 2018).
≈ marks a conversion by molar mass, not a printed value. Read-outs that look alike come from different tables or passages of the source.

Assays:
Poliovirus 3 = assay: microbe, parasite or virus in culture; format: cell-based; conditions: Enterovirus C
[1] = system: mock-infected cells (HeLa, MRC-5, RD); conditions: human
[2] = cited from earlier work
[3] = cited from earlier work; for bioavailability / metabolization and excretion: in vivo
[4] = system: 48 rhinovirus types and coxsackievirus A21, B3, enterovirus 70 and echovirus 11; conditions: cell culture; cited from earlier work
rhinovirus infections = conditions: treatment of rhinovirus infections; cited from earlier work
in vitro = conditions: human
[5] = in vivo; cited from earlier work
Coxsackie A24(HG) = assay: CPE inhibition assay, Coxsackie A24(HG); format: cell-based; conditions: MRC5, 48 h; MRC-5, 37° C., 2 days, FDA
Coxsackie A24(DN) = assay: CPE inhibition assay, Coxsackie A24(DN); format: cell-based; conditions: MRC5, 48 h; MRC-5, 37° C., 2 days, FDA
[6] = clinical studies; cited from earlier work
[7] = HeLa37, 48 h, read-out: Poliovirus 3 EC50

Question: With `CC(C)c1ccc2c(c1)OC1(O)c3cccc(N)c3C(=O)C21NC(=O)c1[nH]nc2ccccc12` (stereo not shown) [Example 288, N-(1-Amino-4b-hydroxy-7-isopropyl-10-oxo-9b,10-dihydro-4bH-benzo[d]indeno[1,2-b]furan-9b-yl)-2H-indazole-3-carboxamide] as the compound, how does the EC50 (Poliovirus 3; read-out: Poliovirus3 EC50) read?
Answer: Its EC50 is 0.029 µg/mL (≈ 0.0638 µM).

Question: And the “Picorana CC50” value [1]?
Answer: Its value is over 10 µg/mL.

Question: Which results are given for `CCC(=O)C(CCCCCCOc1ccc(OC)cc1Cl)C(=O)CC` [arildone, Arildone]?
Answer: solubility [2]: poor solubility; bioavailability [3]: low bioavailability

Question: For `CCOC(=O)/C=C/[C@H](C[C@@H]1CCNC1=O)NC(=O)[C@@H](CC(=O)[C@@H](NC(=O)c1cc(C)on1)C(C)C)Cc1ccc(F)cc1` [AG 7088], which “concentration range with antiviral effect” value [4] is on record?
Answer: The value was “nanomolar concentration range”.

Question: For `Cc1cc(CCCCCCCOc2ccc(C3=NCCO3)cc2)on1` [disoxaril], which bioavailability [3] is on record?
Answer: The bioavailability was “low bioavailability”.

Question: And the metabolization and excretion [3]?
Answer: Its metabolization and excretion is “rapid metabolization and excretion”.

Question: Which results are given for `Cc1cc(CCCOc2c(C)cc(-c3noc(C(F)(F)F)n3)cc2C)on1` [Pleconaril, pleconaril]?
Answer: side effects (rhinovirus infections): side effects were observed; therapy success (rhinovirus infections): therapy success was too low; oral bioavailability ([3]; oral): very good oral bioavailability

Question: Which results are given for `CCc1ccc2c(c1)OC1(O)c3cccc(N)c3C(=O)C21O` (stereo not shown) [Example 50, 1-Amino-7-ethyl-4b,9b-dihydroxy-4b,9b-dihydro-5-oxa-indeno[2,1-a]inden-10-one]?
Answer: melting point: 200 to 203 °C; CC50 (in vitro): 49.9 µg/mL (≈ 168 µM); EC50 (Poliovirus 3; [7]): < 0.1 µg/mL; EC50 (Poliovirus 3; read-out: Poliovirus3 EC50): < 0.1 µg/mL

Question: For `Cc1cc(CCCCCOc2c(Cl)cc(C3=NCCO3)cc2Cl)on1` [WIN 54954], which side effects [5] is on record?
Answer: Its side effects is “skin rash”.

Question: What about the metabolization and excretion [3] of the same compound?
Answer: The metabolization and excretion was “rapid metabolization and excretion”.

Question: Which melting point does the source give for `COc1ccc2c(c1)OC1(O)c3ccccc3C(=O)C21O` (stereo not shown) [Example 7, 4b,9b-Dihydroxy-7-methoxy-4bH-benzo[d]indeno[1,2-b]furan-10(9bH)-one] here?
Answer: Its melting point is 98 to 100 °C.

Question: What about the CC50 (in vitro; Picorana CC50) of the same compound?
Answer: The CC50 was over 50 µg/mL.

Question: Which melting point does the source give for `CC(C)c1ccc2c(c1)OC1(O)c3ccc(N)c(N)c3C(=O)C21O` (stereo not shown) [Example 62, 1,2-Diamino-4b,9b-dihydroxy-7-isopropyl-4bH-indeno[1,2-b]benzofuran-10(9bH)-one] here?
Answer: Its melting point is 163 to 166 °C.

Question: And the CC50 (in vitro; Picorana CC50)?
Answer: The CC50 was over 50 µg/mL.

Question: With `CC(=O)OC12Oc3cc(C)ccc3C1(OC(C)=O)C(=O)c1ccccc12` (stereo not shown) [Example 2, 7-Methyl-10-oxo-9b,10-dihydro-4bH-benzo[d]indeno[1,2-b]furane-4b,9b-diyl diacetate] as the compound, how does the melting point read?
Answer: The melting point was 167 to 169 °C.

Question: And the CC50 (in vitro; Picorana CC50)?
Answer: The CC50 was over 50 µg/mL.

Question: What does the source list for `CC(=O)Nc1cccc2c1C(=O)C1(N)c3ccc(C(C)C)cc3OC21O` (stereo not shown) [Example 56]?
Answer: melting point: 152 to 156 °C; CC50 (in vitro; Picorana CC50): 42.2 µg/mL (≈ 120 µM)

Question: Which melting point does the source give for `CC(=O)OC12Oc3cc(C(C)C)ccc3C1(OC(C)=O)C(=O)c1ccccc12` (stereo not shown) [Example 11, 7-Isopropyl-10-oxo-9b,10-dihydro-4bH-benzo[d]indeno[1,2-b]furane-4b,9b-diyl diacetate] here?
Answer: Its melting point is 138 to 140 °C.

Question: And the CC50 (in vitro; Picorana CC50)?
Answer: Its CC50 is 16.2 µg/mL.

Question: Which results are given for `Cc1cc2c(cc1C)C1(O)C(=O)c3ccccc3C1(O)O2` (stereo not shown) [Example 4, 4b,9b-dihydroxy-7,8-dimethyl-4bH-benzo[d]indeno[1,2-b]furan-10(9bH)-one]?
Answer: melting point: 198 to 200 °C; CC50 (in vitro; Picorana CC50): > 50 µg/mL

Question: For `O=C1c2ccccc2C2(O)Oc3c(ccc4c3CCCC4)C12O` (stereo not shown) [Example 31, 6b,11b-Dihydroxy-1,2,3,4,6b,11b-hexahydro-12-oxa-benzo[4,5]pentaleno[2,1-a]naphthalen-7-one], which melting point is on record?
Answer: Its melting point is 252 to 254 °C.

Question: What about the CC50 (in vitro; Picorana CC50) of the same compound?
Answer: The CC50 was 8.9 µg/mL (≈ 28.9 µM).

Question: Which results are given for `CC(=O)O[C@@]12Oc3cc(C(C)C)ccc3[C@]1(OC(C)=O)C(=O)c1c(N)cccc12` [Example 47, 1-Amino-7-isopropyl-10-oxo-9b,10-dihydro-4bH-benzo[d]indeno[1,2-b]furane-4b,9b-diyl diacetate]?
Answer: melting point: 220 to 223 °C; EC50 (Coxsackie A24(HG)): < 0.01 µg/mL; CC50 (in vitro): 15.4 µg/mL; EC50 (Poliovirus 3; [7]): < 0.1 µg/mL; EC50 (Poliovirus 3; read-out: Poliovirus3 EC50): < 0.1 µg/mL; EC50 (Coxsackie A24(DN)): 0.055 µg/mL

Question: For `CC(C)S(=O)(=O)n1c(N)nc2ccc(/C(=N/O)c3ccccc3)cc21` [Enviroxime], which pharmacokinetics [6] is on record?
Answer: Its pharmacokinetics is “bad pharmacokinetics”.

Question: And the side effects [6]?
Answer: Its side effects is “unwanted side effects”.

Question: What about the therapeutic effects [6] of the same compound?
Answer: The therapeutic effects was “insignificant or few therapeutic effects”.

Question: For `COC(=O)O[C@@]12Oc3cc(C(C)C)ccc3[C@]1(OC(=O)OC)C(=O)c1c(N)cccc12` [Example 51], which melting point is on record?
Answer: The melting point was 110 to 120 °C.

Question: And the CC50 (in vitro; Picorana CC50)?
Answer: Its CC50 is 17.5 µg/mL (≈ 40.9 µM).

Question: With `CCOC(=O)OC12Oc3cc(C(C)C)ccc3C1(OC(=O)OCC)C(=O)c1ccccc12` (stereo not shown) [Example 37, Diethyl 7-isopropyl-10-oxo-9b,10-dihydro-4bH-benzo[d]indeno[1,2-b]furane-4b,9b-diyl dicarbonate] as the compound, how does the melting point read?
Answer: The melting point was 150 to 153 °C.

Question: What about the CC50 (in vitro; Picorana CC50) of the same compound?
Answer: The CC50 was 9.68 µg/mL (≈ 22 µM).
